Assay results published in paper PMC6208348 (Nature Communications, 2018).

Key:
L. longbeachae LeSH = biological target: T1, L. longbeachae LeSH (Legionella longbeachae, UniProt D3HJY4)
T1 construct: gene LLO_2327

[1] = biological target: T2, L. longbeachae LUSH SH2 domain (Legionella longbeachae, UniProt D3HPG5); format: binding
T2 construct: gene LLO_0448
T2 sequence (D3HPG5 3-171 limits assumed): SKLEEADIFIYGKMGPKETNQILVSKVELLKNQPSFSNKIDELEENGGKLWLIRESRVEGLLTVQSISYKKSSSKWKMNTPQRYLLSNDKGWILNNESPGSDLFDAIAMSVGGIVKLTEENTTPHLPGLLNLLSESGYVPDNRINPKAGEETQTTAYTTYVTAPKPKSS

T1 sequence (D3HJY4 1-167 limits assumed): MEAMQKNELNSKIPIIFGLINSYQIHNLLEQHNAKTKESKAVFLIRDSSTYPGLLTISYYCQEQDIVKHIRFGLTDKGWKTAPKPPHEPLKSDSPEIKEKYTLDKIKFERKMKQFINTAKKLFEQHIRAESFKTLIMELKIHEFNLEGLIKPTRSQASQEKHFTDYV

SMILES | X-ray crystal structure of complex (L. longbeachae LeSH) | Kd [1]
N[C@@H](Cc1ccc(OP(=O)(O)O)cc1)C(=O)O [phosphotyrosine] | crystal structures of LeSH in complex with three different pTyr ligands, including the phosphotyrosine itself | –
N[C@@H](Cc1ccc(OP(=O)(O)O)cc1)C(=O)NCC(=O)O [pY-G dipeptide] | – | 810 nM
